# Literature values as cited in US20250009787A1, “Nitric Oxide Containing Foam Formulation for Topical Medical Use” (NOxy Health Products, Inc., priority 2023, published 2025).
# Legend:
# [1] = reported to be toxic at higher concentration
# leg abscesses = conditions: 200 ppm NO gas, average of 8.1 hours, 14 consecutive nights
substance,measurement,setting,value
Nitric oxide [NO gas],toxic concentration (exposure),[1],> 200 ppm
same,lesion size,leg abscesses,significantly reduced in size
